Measured values taken from patent US20170157145A1, “SUBSTANCE INDUCING EXPRESSION OF PARKIN POLYPEPTIDE AND USE THEREOF” (Samsung Electronics Co., Ltd., priority 2015, published 2017).

Legend:
HEK 293T cell line = assay: Cell protecting effect against H2O2 oxidative stress cytotoxicity (Alamar blue assay); format: cell-based, human; conditions: cytotoxicity inhibition ratio relative to DMSO; 10 μM 48 hours, then H2O2 500 μM 90 minutes
Procedure: A cytotoxicity-induced model by application of oxidative stress to the HEK 293T cell line was used. 10 μM of each of the 22 compounds was applied to the HEK cell line and cultured at 37° C. and 5% CO2 for about 48 hours. H2O2 (Sigma-Aldrich, final concentration of 500 μM) was applied to the cultured cells and cultured at 37° C. and 5% CO2 for about 90 minutes. Thereafter, cells were collected and cytotoxicity was examined by Alamar blue® assay (Thermo Fisher Scientific).
The level of H2O2-induced cytotoxicity in cells treated with each of the 22 compounds was compared with cells treated with DMSO alone. 16 compounds having a significant cytotoxicity inhibitory effect (P<0.05) against oxidative stress were selected.
In Table 1, the values of luciferase activity and immunoblotting were expressed relative to DMSO, and the cell protecting effect (%) represents a cytotoxicity inhibition ratio, relative to DMSO. […] Further, “n” represents the number of experiments that were repeated, and “s.e.” represents standard error.

parkin = assay: Parkin expression in mouse brain subregions after i.p. hydrocortisone (immunoblot); format: in vivo; conditions: striatum, ventral midbrain and cerebellum; i.p. 7 days; vs vehicle treated control mice; normalized to β-actin
Procedure: The head skin was closed by suturing and wound healing and recovery were monitored following surgery. […] The brain was removed and processed for immunohistochemistry. […] After homogenization, samples were rotated at 4° C. for 30 min for complete lysis, then the homogenate was centrifuged at 52,000 rpm for 20 min, and the resulting fractions were collected. Protein levels were quantified using the BCA kit (Pierce) with BSA standards and analyzed by immunoblot. […] The densitometric analyses of the bands were performed using ImageJ (NIH, http://rsb.info.nih.gov/ij/).

AIMP2 = AIMP2 level in mouse striatum and ventral midbrain after i.p. hydrocortisone (western blot); format: in vivo; conditions: hydrocortisone 7 days vs DMSO
Procedure: The head skin was closed by suturing and wound healing and recovery were monitored following surgery. […] The brain was removed and processed for immunohistochemistry. […] After homogenization, samples were rotated at 4° C. for 30 min for complete lysis, then the homogenate was centrifuged at 52,000 rpm for 20 min, and the resulting fractions were collected. Protein levels were quantified using the BCA kit (Pierce) with BSA standards and analyzed by immunoblot.
The densitometric analyses of the bands were performed using ImageJ (NIH, http://rsb.info.nih.gov/ij/).

Parkin protein = assay: Immunoblotting of Parkin protein in HEK 293T cells; format: cell-based, human; conditions: Parkin protein relative to DMSO, 10 μM, about 48 hours
Procedure: Among the 44 compounds selected in the initial screen described in 2, 22 compounds were examined to determine whether they increased expression of Parkin protein when they are applied to an HEK 293T cell line.
10 μM of each compound was added to the HEK 293T cells, and cultured at 37° C. and 5% CO2 for about 48 hours. The cultured cells were collected, and proteins were obtained from the cells. Anti-Parkin protein antibody (Cell signaling) and anti-beta actin antibody (Sigma-Aldrich) were used to perform immunoblotting, and an image of the immunoblotting is shown in FIG. 1.

[1] = system: tyrosine hydroxylase (TH)-positive dopaminergic neurons in the substantia nigra pars compacta; assay: 6-OHDA-induced PD mouse model, stereological count of TH-positive dopaminergic neurons; format: in vivo; conditions: hydrocortisone pretreatment 0.4 mg/kg i.p. daily; 6-OHDA 8 ug intrastriatal on day 7
Procedure: Hydrocortisone was given to mice intraperitoneally. Hydrocortisone administration began on day 1 and continued for 11 days followed by stereological assessment of dopamine neuron counts. 6-OHDA intrastriatal injection was done on day 7. For stereotaxic injection of 6-hydroxy dopamine (6-OHDA, 8 ug), eight-week-old C57/BL6 mice treated either with hydrocortisone for 7 days or DMSO as a control were anesthetized with pentobarbital (60 mg/kg). An injection cannula (26.5 gauge) was applied stereotaxically into the striatum (anteroposterior, 0.5 mm from bregma; mediolateral, 2.0 mm; dorsoventral, 3.0 mm) unilaterally (applied into the right hemisphere). […] The head skin was closed by suturing and wound healing and recovery were monitored following surgery. […] Protein levels were quantified using the BCA kit (Pierce) with BSA standards and analyzed by immunoblot. […]
After scheduled treatments of hydrocortisone (0.4 mg/kg body weight, i.p. administration daily) in 6-OHDA intoxication models and control groups, animals were anesthetized with pentobarbital (50 mg/kg, intraperitoneal injection) and perfused with PBS followed by 4% paraformaldehyde (wt/vol in PBS). […] Total numbers of TH-positive neurons in substantia nigra pars compacta were counted using the Optical Fractionator probe of Stereo Investigator software (MicroBrightfield, Williston, Vt.). […]

human Parkin promoter = assay: Parkin promoter luciferase screening in HEK-Parkin-Luc cell line; format: cell-based; conditions: relative to DMSO, 10 μM, about 24 hours
Procedure: To identify compounds capable of inducing expression of Parkin protein at the promoter level, a pGL3-Parkin-Luc DNA construct was used (Cell Death and Differentiation, vol. 18, No. 5, p. 769-782, 2011.05 ). This construct was used to quantify the activity of human Parkin promoter by luminescence intensity due to a luciferase expression level. As a cell line, a human embryonic kidney cell line HEK-293T (ATCC), which maintains Parkin protein activity at a low level, was prepared.
Thereafter, 5 μg/ml of puromycin (Calbiochem) was added to the HEK-293T cells, and cultured at 37° C. and 5 % CO2 for about 21 days. Every 3 days, the medium was replaced by a fresh medium containing 5 μg/ml of puromycin. Stable cell lines were established from single colonies of the cultured cell line. A cell line showing stable luciferase activity was obtained, and designated as HEK-Parkin-Luc, which was used to screen for compounds capable of activating the Parkin promoter. […]
Then, the cultured cells were washed with PBS, and a luminescent substrate (Promega) was added. Luminescence intensity of the cells was measured using a microplate luminometer (Berthold Technologies), and luciferase activity relative to a negative control of 0.1% DMSO was calculated.

Question: How did the “Cell protecting effect (%)” value (HEK 293T cell line) turn out when C[C@]12CCC(=O)C=C1CC[C@@H]1[C@@H]2[C@@H](O)C[C@@]2(C)[C@H]1CC[C@]2(O)C(=O)CO [Hydrocortisone, (11β)-11,17,21-trihydroxypregn-4-ene-3,20-dione] was run?
Answer: 35.53%

Question: And the “increase of parkin expression” value (parkin)?
Answer: approximately two fold

Question: And the “downregulation of parkin's toxic substrate AIMP2” value (AIMP2)?
Answer: 20%

Question: What about the Immunoblotting (Parkin protein) of the same compound?
Answer: 1.11

Question: And the “dopaminergic neuronal survival against 6-OHDA intoxication” value [1]?
Answer: markedly enhanced dopaminergic neuronal survival

Question: And the Luciferase activity (human Parkin promoter)?
Answer: 1.52

Question: O=C(c1ccccc1)c1ccc2n1CCC2C(=O)O (racemic) [Ketorolac tromethamine, (±)-5-benzoyl-2,3-dihydro-1H-pyrrolizine-1-carboxylic acid] was tested. Which “Cell protecting effect (%)” value (HEK 293T cell line) did it give?
Answer: 21.49%

Question: And the Immunoblotting (Parkin protein)?
Answer: 1.95

Question: What about the Luciferase activity (human Parkin promoter) of the same compound?
Answer: 1.31
